Laboratory results taken from patent US20210255205A1, “COMPOSITIONS AND METHODS FOR TREATING METABOLIC DISEASE” (THE REGENTS OF THE UNIVERSITY OF CALIFORNIA, priority 2018, published 2021).

Tests used:
[1] = tested on: ASTER domain of Aster-B; test: GST agarose assay for [^3H]cholesterol binding; parameters: species or system mouse; conditions: 150 nM protein, 0.003% Triton X-100 in PBS
Description: Reactions were carried out in binding buffer (0.003% Triton X-100 in 1× PBS) containing 150 nM of Aster-B ASTER protein and [^3H]cholesterol. After incubation for 30 min at room temperature, the mixture was incubated with pre-equilibrated of glutathione agarose resin (Pierce PI16100) at 4° C. for 2 h, then loaded onto a column and washed. The protein-bound [^3H]cholesterol was eluted with 10 mM GSH peptide and quantified by scintillation counting.

[2] = biological target: T1, Aster-B GRAM domain (Mus musculus, UniProt Q80TI0); test: protein-lipid overlay (PIP Strips); format: binding; conditions: lipid strip, 100 pmol lipid per spot
T1 construct: B GRAM (Aster-B1-337) was conducted using PIP Strips (Echelon Biosciences); made in house; host or cells: Sf9 insect cells
T1 sequence (Q80TI0 41-377 limits assumed): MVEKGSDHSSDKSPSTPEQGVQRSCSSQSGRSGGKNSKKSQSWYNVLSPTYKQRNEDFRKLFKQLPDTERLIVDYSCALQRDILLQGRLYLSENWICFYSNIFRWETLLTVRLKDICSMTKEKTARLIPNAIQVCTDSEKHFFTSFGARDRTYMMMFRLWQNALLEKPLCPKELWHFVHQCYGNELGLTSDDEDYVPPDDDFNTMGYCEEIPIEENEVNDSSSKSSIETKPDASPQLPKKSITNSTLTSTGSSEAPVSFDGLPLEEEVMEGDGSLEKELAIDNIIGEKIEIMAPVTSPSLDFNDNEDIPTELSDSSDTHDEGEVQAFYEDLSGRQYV
Description: FIG. 9A: Protein-lipid overlay over purified mouse Aster-B GRAM domain with various phospholipid species. PA and PS correspond to phosphatidic acid and phosphatidylserine, respectively. FIG. 9A discloses “6xHis” as SEQ ID NO: 11. FIG. 9B: Purified Aster-B GRAM domain was incubated with sucrose-loaded heavy liposomes containing Dansyl-PE and 80-85% PC or 80-85% PS+/−5% Cholesterol. Liposomes were sedimented, washed, and analyzed by immunoblotting for associated Aster-B Gram protein (anti-His antibody). FIG. 9C: Localization of full-length and B ΔGRAM Aster-B-GFP constructs with plasma membrane (CellMask stain) expressed in HeLa cells in the presence or absence of cholesterol loading imaged by live cell confocal microscopy. […] FIG. 9E: Quantification of Aster-B PH-EGFP intensity in the TIRF plane upon cholesterol loading (left panel; n=2-3 cells, error bars+/−SD). […] TIRF videos recorded 5 slices (slices 3-5 were used to calculate FO) before cholesterol addition. […]
(§1) The Aster proteins contain an N-terminal GRAM domain, a structural motif related to the pleckstrin homology domain that is found in glucosyltransferases, Rab-like GTPase activators, myotubularins, and other membrane-associated proteins. […] Given that phosphatidylserine is highly enriched in the inner leaflet of the PM, it was further determined if the Aster-B GRAM domain was associated with phosphatidylserine-containing liposomes.

[3] = biological target: T1, Aster-B GRAM domain; test: liposome co-sedimentation assay; format: binding; conditions: sucrose-loaded heavy liposomes, 80-85% PC or PS
Description: FIG. 9A: Protein-lipid overlay over purified mouse Aster-B GRAM domain with various phospholipid species. PA and PS correspond to phosphatidic acid and phosphatidylserine, respectively. FIG. 9A discloses “6xHis” as SEQ ID NO: 11. FIG. 9B: Purified Aster-B GRAM domain was incubated with sucrose-loaded heavy liposomes containing Dansyl-PE and 80-85% PC or 80-85% PS+/−5% Cholesterol. Liposomes were sedimented, washed, and analyzed by immunoblotting for associated Aster-B Gram protein (anti-His antibody). FIG. 9C: Localization of full-length and B ΔGRAM Aster-B-GFP constructs with plasma membrane (CellMask stain) expressed in HeLa cells in the presence or absence of cholesterol loading imaged by live cell confocal microscopy. […] FIG. 9E: Quantification of Aster-B PH-EGFP intensity in the TIRF plane upon cholesterol loading (left panel; n=2-3 cells, error bars+/−SD). […] TIRF videos recorded 5 slices (slices 3-5 were used to calculate FO) before cholesterol addition.
as §1

Row | Molecule | direct binding to the ASTER domain of Aster-B [1] | interaction with purified Aster-B GRAM domain [2] | co-sedimentation of GRAM domain with liposomes [3]
1 | CC(C)CCC[C@@H](C)[C@H]1CC[C@H]2[C@@H]3CC=C4C[C@@H](O)CC[C@]4(C)[C@H]3CC[C@]12C [[^3H]cholesterol] | direct binding |  | 
2 | phosphatidylserine [phosphatidylserine (PS)] |  | interacted strongly | pelleted with
